Assay results published in the NIST ThermoML archive (doi:10.1007/s10765-007-0241-8).
Numbers after ± are expanded uncertainties.

Conditions: Liquid; for thermal conductivity: Hot wire method; for mass density: Constant-volume piezometry

## CCCCCCCC [octane]
294.5 K, 100 kPa
  thermal conductivity: 0.126 ± 0.005 W/m/K
314.7 K, 100 kPa
  thermal conductivity: 0.121 ± 0.005 W/m/K
334.8 K, 100 kPa
  thermal conductivity: 0.115 ± 0.005 W/m/K

## CCCCCCn1cc[n+](C)c1.F[P-](F)(F)(F)(F)F [1-hexyl-3-methylimidazolium hexafluorophosphate]
294.1 K, 100 kPa
  mass density: 1294 ± 12 kg/m3
  thermal conductivity: 0.145 ± 0.006 W/m/K
294.1 K, 10000 kPa
  mass density: 1300 ± 12 kg/m3
  thermal conductivity: 0.147 ± 0.006 W/m/K
294.1 K, 20000 kPa
  mass density: 1306 ± 12 kg/m3
  thermal conductivity: 0.148 ± 0.006 W/m/K
315.1 K, 100 kPa
  mass density: 1278 ± 11 kg/m3
  thermal conductivity: 0.145 ± 0.006 W/m/K
315.1 K, 10000 kPa
  mass density: 1284 ± 12 kg/m3
  thermal conductivity: 0.146 ± 0.006 W/m/K
315.1 K, 20000 kPa
  mass density: 1290 ± 12 kg/m3
  thermal conductivity: 0.148 ± 0.006 W/m/K
335.2 K, 100 kPa
  mass density: 1262 ± 11 kg/m3
  thermal conductivity: 0.144 ± 0.006 W/m/K
335.2 K, 10000 kPa
  mass density: 1268 ± 11 kg/m3
  thermal conductivity: 0.146 ± 0.006 W/m/K
335.2 K, 20000 kPa
  mass density: 1274 ± 12 kg/m3
  thermal conductivity: 0.147 ± 0.006 W/m/K

## CCCCCCCC[n+]1ccn(C)c1.F[P-](F)(F)(F)(F)F [1-octyl-3-methylimidazolium hexafluorophosphate]
295.1 K, 100 kPa
  mass density: 1236 ± 11 kg/m3
  thermal conductivity: 0.145 ± 0.006 W/m/K
295.1 K, 10000 kPa
  mass density: 1243 ± 11 kg/m3
  thermal conductivity: 0.147 ± 0.006 W/m/K
295.1 K, 20000 kPa
  mass density: 1249 ± 11 kg/m3
  thermal conductivity: 0.147 ± 0.006 W/m/K
315.1 K, 100 kPa
  mass density: 1222 ± 10 kg/m3
  thermal conductivity: 0.145 ± 0.006 W/m/K
315.1 K, 10000 kPa
  mass density: 1228 ± 11 kg/m3
  thermal conductivity: 0.146 ± 0.006 W/m/K
315.1 K, 20000 kPa
  mass density: 1234 ± 11 kg/m3
  thermal conductivity: 0.147 ± 0.006 W/m/K
335.2 K, 100 kPa
  mass density: 1207 ± 10 kg/m3
  thermal conductivity: 0.144 ± 0.006 W/m/K
335.2 K, 10000 kPa
  mass density: 1213 ± 10 kg/m3
  thermal conductivity: 0.146 ± 0.006 W/m/K
335.2 K, 20000 kPa
  mass density: 1219 ± 11 kg/m3
  thermal conductivity: 0.147 ± 0.006 W/m/K

## CCCCn1cc[n+](C)c1.F[P-](F)(F)(F)(F)F [1-butyl-3-methylimidazolium hexafluorophosphate]
294.9 K, 0.1 kPa
  thermal conductivity: 0.145 ± 0.006 W/m/K
294.9 K, 10 kPa
  thermal conductivity: 0.146 ± 0.006 W/m/K
294.9 K, 20 kPa
  thermal conductivity: 0.148 ± 0.006 W/m/K
294.9 K, 100 kPa
  mass density: 1369 ± 13 kg/m3
294.9 K, 10000 kPa
  mass density: 1373 ± 13 kg/m3
294.9 K, 20000 kPa
  mass density: 1378 ± 14 kg/m3
315 K, 0.1 kPa
  thermal conductivity: 0.145 ± 0.006 W/m/K
315 K, 10 kPa
  thermal conductivity: 0.146 ± 0.006 W/m/K
315 K, 20 kPa
  thermal conductivity: 0.147 ± 0.006 W/m/K
315 K, 100 kPa
  mass density: 1352 ± 13 kg/m3
315 K, 10000 kPa
  mass density: 1357 ± 13 kg/m3
315 K, 20000 kPa
  mass density: 1362 ± 13 kg/m3
335.1 K, 0.1 kPa
  thermal conductivity: 0.144 ± 0.006 W/m/K
335.1 K, 10 kPa
  thermal conductivity: 0.145 ± 0.006 W/m/K
335.1 K, 20 kPa
  thermal conductivity: 0.147 ± 0.006 W/m/K
335.1 K, 100 kPa
  mass density: 1336 ± 13 kg/m3
335.1 K, 10000 kPa
  mass density: 1341 ± 13 kg/m3
335.1 K, 20000 kPa
  mass density: 1347 ± 13 kg/m3

## Cc1ccccc1 [toluene]
294.2 K, 100 kPa
  thermal conductivity: 0.132 ± 0.006 W/m/K
294.2 K, 10000 kPa
  thermal conductivity: 0.136 ± 0.006 W/m/K
294.2 K, 20000 kPa
  thermal conductivity: 0.139 ± 0.006 W/m/K
314.1 K, 100 kPa
  thermal conductivity: 0.127 ± 0.005 W/m/K
314.1 K, 10000 kPa
  thermal conductivity: 0.131 ± 0.006 W/m/K
314.1 K, 20000 kPa
  thermal conductivity: 0.135 ± 0.006 W/m/K
334.4 K, 100 kPa
  thermal conductivity: 0.122 ± 0.005 W/m/K
334.4 K, 10000 kPa
  thermal conductivity: 0.126 ± 0.005 W/m/K
334.4 K, 20000 kPa
  thermal conductivity: 0.129 ± 0.005 W/m/K
